In patent publication US10266603B2, “Targeted therapy to restore radioactive iodine transport in thyroid cancer” (The Governors of the University of Alberta, priority 2014, dated 2019):

Assays:
Type in all cases: cell-based, human
[1] = tested on: patient derived papillary thyroid carcinoma primary tumors; assay: iodide transport in patient derived primary tumors; conditions: patient derived PTC primary tumors; 72 hour period
From the text: FIG. 9. In the effect of PDGFRA blockade using small molecule inhibitors on iodide transport in patient derived papillary thyroid carcinoma primary tumors.

8305C cell line = assay: wound-healing assay (cellular migration), 8305C; conditions: 8305C cell line expressing alpha subunit of PDGFR; after 24 and 42 hours; versus no crenolanib
Procedure: (§1) FIG. 8. The effect of PDGFRA blockade using a specific PDGFRA small molecule inhibitor on cellular migration using the wound-healing assay. In two separate cell lines that express the alpha subunit of PDGFR as shown in (A) 8305C cell line and BCPAP cell line in (B), the addition of crenolanib as a selective alpha inhibitor means that the percentage of open wound left after 24 and 42 hours is much higher because of slow the migration of the cells across the gap and this is highly significant. This illustrates the role of PDGFRA in mediating a more aggressive, dedifferentiated behavior for these tumors.

BCPAP cell line = assay: wound-healing assay (cellular migration), BCPAP; conditions: BCPAP cell line expressing alpha subunit of PDGFR; after 24 and 42 hours; versus no crenolanib
Procedure: as §1

CC1(COc2ccc3c(c2)ncn3-c2ccc3cccc(N4CCC(N)CC4)c3n2)COC1 [crenolanib]
iodide uptake [1]: significant increase in iodide uptake | percentage of open wound left (8305C cell line): much higher | percentage of open wound left (BCPAP cell line): much higher
